For 25 compounds, EC50 results are on record in patent US20060004012A1, “Compounds, pharmaceutical compositions and methods for use in treating metabolic disorders” (priority 2004, published 2006).

Some results are limits rather than exact numbers.

In the assay the target is T1, human GPR40 (Homo sapiens, UniProt O14842).
T1 construct: expressed in transfected cells; host or cells: CHO cells, transiently transfected with Lipofectamine 2000 and co-transfected with an aequorin expression vector (Euroscreen)
T1 sequence (O14842 whole entry): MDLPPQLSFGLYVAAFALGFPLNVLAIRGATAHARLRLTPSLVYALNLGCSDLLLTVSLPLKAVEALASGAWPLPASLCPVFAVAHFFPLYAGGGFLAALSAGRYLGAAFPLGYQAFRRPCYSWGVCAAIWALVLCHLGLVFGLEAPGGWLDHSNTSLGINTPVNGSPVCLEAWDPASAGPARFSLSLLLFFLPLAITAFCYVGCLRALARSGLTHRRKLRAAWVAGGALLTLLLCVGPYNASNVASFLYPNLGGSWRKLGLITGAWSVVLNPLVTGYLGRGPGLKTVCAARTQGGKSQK
Description: Cell-based aequorin assay using human GPR40. The conditions noted are these: activation of human GPR40; CHO cells transfected with GPR40 and aequorin expression vectors; aequorin luminescence, area-under-curve 2-20 seconds; read-out: Relative EC50. The protocol: A cell-based aequorin assay may be employed to characterize the modulatory activity of compounds on the GPR40 signaling pathway. In an exemplary assay, CHO cells are transfected in a 15 cm plated containing 14 million cells with 5 μg of GPR40 expression vector and 5 μg of Aequorin expression vector (Euroscreen) using Lipofectamine 2000 (Invitrogen). After 17-24 hours post-transfection, cells are washed with phosphate buffered saline (PBS) and detached from the tissue culture dish with 2 mL of trypsin (0.25%(w/v)). Trypsinization is halted with 28 mL of Hanks Buffered Salt Solution containing 20 mM Hepes (H/HBSS) and 0.01% fatty acid-free bovine serum albumin (BSA) or 0.625% fatty acid-free human serum albumin (HSA). Coelantrazine is added to 1 ug/mL and the cells are incubated for 2 hours at room temperature. Cells are gently mixed every 15 minutes. Compounds are dissolved in dimethyl sulfoxide for preparation of 10 mM stock solutions. Compounds are diluted in H/HBSS containing either 0.01% BSA or 0.625% HSA. Serial dilutions of the test compounds are prepared to determine dose response.
Aequorin luminescence measurements are made using an EG&G Berthold 96-well luminometer and the response is measured over a 20 second interval after cells and compounds were mixed. The area-under-curve from 2-20 seconds is plotted to determine dose reponse. The EC50 (effective concentration to reach 50% maximal response) is determined from the dose response plot. […]
Turning to `CC#C[C@H](CC(=O)O)c1ccc(OCc2ccc(OC)cc2)cc1` [Compound 40.5, (3R)-3-[4-(4-Methoxy-benzyloxy)-phenyl]-hex-4-ynoic acid], the EC50 lay in the range of 1000 to 10000 nM.

As for `COc1cccc(/C=C/C(=O)Nc2ccc(N(CC(=O)O)c3ccccc3)cc2)c1` [Compound 82.6], the half-maximal effective concentration (EC50) is less than 10 nM.

For `CC#CC(CC(=O)O)c1ccc(OCc2ccc(-n3cncn3)cc2)cc1` (stereo not shown) [Compound 79], the EC50 was in the range of 1000 to 10000 nM.

As for `COc1cccc(CN(Cc2cccc(OC)c2)c2ccc(N(CC(=O)O)c3ccccc3)cc2)c1` [Compound 82.1], the EC50 was less than 10 nM.

As to `CC#CC(CC(=O)O)c1ccc(OCc2nn(-c3ccccc3)nc2C)cc1` (stereo not shown) [Compound 26, 3-[4-(5-Methyl-2-phenyl-2H-[1,2,3]triazol-4-ylmethoxy)-phenyl]-hex-4-ynoic acid], the EC50 was in the range of 10 to 100 nM.

Turning to `CC#CC(CC(=O)O)c1ccc(OCc2ccc(-c3nc4ccccc4[nH]3)cc2)cc1` (stereo not shown) [Compound 78], the EC50 lay in the range of 1000 to 10000 nM.

For `CC#CC(CC(=O)O)c1ccc(OCc2ccc(S(=O)(=O)c3ccccc3)cc2)cc1` (stereo not shown) [Compound 10.5], the 50% effective concentration (EC50) lay in the range of 100 to 1000 nM.

With `O=C(O)CC(c1ccc(OCc2cccc(Oc3ccccc3)c2)cc1)c1ccc(C(F)(F)F)cc1` (stereo not shown) [Compound 85.1], the EC50 is 1000 to 10000 nM.

Turning to `CC#C[C@@H](CC(=O)O)c1ccc(OCc2sc(-c3ccc(C)cc3)nc2C)cc1` [Compound 3, (S)-3-[4-(4-Methyl-2-p-tolyl-thiazol-5-ylmethoxy)-phenyl]-hex-4-ynoic acid], the EC50 was less than 10 nM.

Turning to `O=C(O)CN(c1ccccc1)c1ccc(NC(=O)CCc2ccccc2)cc1` [Compound 82.5], the EC50 is less than 10 nM.

Turning to `Cc1ccc(C(CC(=O)O)c2ccc(OCc3cccc(Oc4ccccc4)c3)cc2)cc1` (single isomer, unassigned) [Compound 84.3], the EC50 was 100 to 1000 nM.

With `Cc1ccccc1COc1ccc(C(C#CC(F)(F)F)CC(=O)O)cc1` (stereo not shown) [Compound 87], the EC50 is greater than 10000 nM.

Consider `COc1ccc(COc2ccc(C(C)CC(=O)O)cc2)cc1` (stereo not shown) [Compound 14.4], for which the EC50 is greater than 10000 nM.

With `COc1ccc(COc2ccc(C(C#C[Si](C)(C)C)CC(=O)O)cc2)cc1` (stereo not shown) [Compound 14.1], the EC50 fell in the range of 1000 to 10000 nM.

For the compound `CC#CC(CC(=O)O)c1ccc(OCc2cccc(-c3cccc(C(F)(F)F)c3)c2)cc1` (stereo not shown) [Compound 6.9], the EC50 fell in the range of 10 to 100 nM.

As for `O=C(O)C[C@H](NC(=O)/C=C/c1ccccc1)c1ccc(OCc2cccc(Oc3ccc(F)cc3)c2)cc1` [Compound 88.5], the half-maximal effective concentration (EC50) is greater than 10000 nM.

As for `CC#CC(CC(=O)Nc1nnn[nH]1)c1ccc(OCc2ccc(OC)cc2)cc1` (stereo not shown) [Compound 25.1], the half-maximal effective concentration (EC50) fell in the range of 1000 to 10000 nM.

For `CC#CC(CC(=O)O)c1ccc(OCc2cccc(-c3ccccn3)c2)cc1` (stereo not shown) [Compound 10.8], the EC50 was in the range of 100 to 1000 nM.

Regarding `O=C(O)C[C@H](NC(=O)Cc1ccccc1)c1ccc(OCc2cccc(Oc3ccc(F)cc3)c2)cc1` [Compound 88.4], the EC50 is greater than 10000 nM.

On to `Cc1ccccc1C(CC(=O)O)c1ccc(OCc2cccc(Oc3ccccc3)c2)cc1` (stereo not shown) [Compound 84.4], for which the half-maximal effective concentration (EC50) was in the range of 100 to 1000 nM.

Take `CC#CC(CC(=O)O)c1ccc(OCc2csc(-c3ccccc3)n2)cc1` (stereo not shown) [Compound 8.2]: the EC50 fell in the range of 10 to 100 nM.

Consider `CC#CC(CC(=O)O)c1ccc(OCc2ccc(OC)cc2)cc1` (racemic) [Compound 12, (±)-3-(4-[(4-methoxyphenyl)methoxy]phenyl)-hex-4-ynoic acid], for which the EC50 is 100 to 1000 nM.

For `CN(C)[C@@H](CC(=O)O)c1ccc(OCc2cccc(Oc3ccc(F)cc3)c2)cc1` (stereo in doubt) [Compound 42.14, 3-Dimethylamino-3-{4-[3-(4-fluoro-phenoxy)-benzyloxy]-phenyl}-propionic acid], the EC50 lay within 100 to 1000 nM.

As for `CC#CC(CC(=O)O)c1ccc(OCc2cccc(-c3ccc(C#N)cc3)c2)cc1` (stereo not shown) [Compound 6.7], the EC50 was in the range of 10 to 100 nM.

As to `CC#CC(CC(=O)O)c1ccc(OCc2cccc(-c3ccccc3)c2)cc1` (stereo not shown) [Compound 6.1], the EC50 was in the range of 10 to 100 nM.
